# Measured values published in ChEMBL document CHEMBL1127392, “5-Phenyl-3-ureidobenzazepin-2-ones as cholecystokinin-B receptor antagonists” (J Med Chem, 1994).
# Biological target: T1, Cholecystokinin receptor type A (Cavia porcellus, UniProt Q63931)
# T1 sequence (Q63931 whole entry): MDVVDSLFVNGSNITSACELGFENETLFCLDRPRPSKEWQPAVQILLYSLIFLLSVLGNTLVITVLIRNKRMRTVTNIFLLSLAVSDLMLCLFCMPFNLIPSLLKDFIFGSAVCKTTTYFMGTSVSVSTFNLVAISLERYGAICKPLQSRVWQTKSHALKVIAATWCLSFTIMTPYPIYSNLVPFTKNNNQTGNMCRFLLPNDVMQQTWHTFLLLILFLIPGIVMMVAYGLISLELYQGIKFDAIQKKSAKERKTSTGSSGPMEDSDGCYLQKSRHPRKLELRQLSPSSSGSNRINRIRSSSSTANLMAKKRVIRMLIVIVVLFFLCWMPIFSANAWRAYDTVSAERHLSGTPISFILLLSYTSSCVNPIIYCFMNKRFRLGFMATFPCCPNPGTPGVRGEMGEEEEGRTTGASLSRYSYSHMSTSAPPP
# Assay: In vitro binding affinity for the cholecystokinin type A receptor in guinea pig pancreas assayed using [125I]BH-CCK-8 as radioligand
row,SMILES,IC50 [nM]
1,CC(C)(C)NC(=O)CN1C(=O)[C@@H](NC(=O)Nc2cccc(Cl)c2)C[C@H](C2CCCCC2)c2ccccc21,> 10000
2,CC1(NC(=O)CN2C(=O)[C@H](NC(=O)Nc3cccc(Cl)c3)C[C@H](c3ccccc3)c3ccccc32)CCCCC1,467
3,Cc1ccc2c(c1)[C@@H](c1ccccc1)C[C@@H](NC(=O)Nc1cccc(Cl)c1)C(=O)N2CC(=O)NC(C)(C)C,317
4,Cc1cccc(NC(=O)N[C@@H]2C[C@H](c3ccccc3)c3ccccc3N(CC(=O)NC(C)(C)C)C2=O)c1,288
5,Cc1ccc2c(c1)N(CC(=O)NC(C)(C)C)C(=O)[C@H](NC(=O)Nc1cccc(Cl)c1)C[C@@H]2Cc1ccccc1,> 10000
6,Cc1ccccc1NC(=O)N[C@@H]1C[C@H](c2ccccc2)c2ccccc2N(CC(=O)NC(C)(C)C)C1=O,1470
7,CC(C)(C)NC(=O)CN1C(=O)[C@H](NC(=O)Nc2cccc(Cl)c2)C[C@H](c2ccccc2)c2ccc(Cl)cc21,320
8,CC(C)(C)NC(=O)CN1C(=O)[C@H](NC(=O)Nc2ccc(Cl)cc2)C[C@H](c2ccccc2)c2ccccc21,399
9,Cc1ccc2c(c1)N(CC(=O)NC(C)(C)C)C(=O)[C@H](NC(=O)Nc1cccc(Cl)c1)C[C@@H]2C1CCCCC1,560
10,Cc1ccc2c(c1)N(CC(=O)NC(C)(C)C)C(=O)[C@@H](NC(=O)Nc1cccc(Cl)c1)C[C@H]2c1ccccc1,363
11,Cc1ccc(NC(=O)N[C@@H]2C[C@H](c3ccccc3)c3ccccc3N(CC(=O)NC(C)(C)C)C2=O)cc1,1140
12,CC(C)(C)NC(=O)CN1C(=O)[C@H](NC(=O)Nc2cccc(Cl)c2)C[C@H](c2ccccc2)c2cc(Cl)ccc21,287
13,Cc1ccc([C@H]2C[C@@H](NC(=O)Nc3cccc(Cl)c3)C(=O)N(CC(=O)NC(C)(C)C)c3cc(C)ccc32)cc1,417
14,CC(C)(NC(=O)CN1C(=O)[C@H](NC(=O)Nc2cccc(Cl)c2)C[C@H](c2ccccc2)c2ccccc21)c1ccccc1,460
15,Cc1cccc(NC(=O)N[C@@H]2N=C(c3ccccc3)c3ccccc3N(C)C2=O)c1 [L-365260],86

# More lines, in order of falling IC50, values ahead:
row,IC50 [nM],SMILES
1,176,Cc1ccc2c(c1)N(CC(=O)NC(C)(C)C)C(=O)[C@H](NC(=O)Nc1cccc(Cl)c1)C[C@@H]2c1ccccc1 (stereo in doubt; 4)
2,171,CC(C)(C)NC(=O)CN1C(=O)[C@H](NC(=O)Nc2cccc(Cl)c2)C[C@H](C2CCCCC2)c2ccccc21
3,166,COc1cccc(NC(=O)N[C@@H]2C[C@H](c3ccccc3)c3ccccc3N(CC(=O)NC(C)(C)C)C2=O)c1
4,144,CCC(C)(C)NC(=O)CN1C(=O)[C@H](NC(=O)Nc2cccc(Cl)c2)C[C@H](c2ccccc2)c2ccccc21
5,144,CC(C)(C)NC(=O)CN1C(=O)[C@H](NC(=O)Nc2cccc(Cl)c2)C[C@H](c2ccccc2)c2ccccc21
6,130,Cc1ccc2c(c1)N(CC(=O)NC(C)(C)C)C(=O)[C@H](NC(=O)Nc1cccc(Cl)c1)C[C@@H]2c1ccccc1 (stereo in doubt; 43a)
7,77,Cc1cccc2c1N(CC(=O)NC(C)(C)C)C(=O)[C@H](NC(=O)Nc1cccc(Cl)c1)C[C@@H]2c1ccccc1
8,72,Cc1ccc2c(c1)N(CC(=O)NC(C)(C)C)C(=O)[C@H](NC(=O)Nc1cccc(Cl)c1)C[C@@H]2C(C)C
9,71,CCc1ccc2c(c1)N(CC(=O)NC(C)(C)C)C(=O)[C@H](NC(=O)Nc1cccc(Cl)c1)C[C@@H]2c1ccccc1
10,69,CC(C)(C)NC(=O)CN1C(=O)[C@H](NC(=O)Nc2cccc(Cl)c2)C[C@H](c2cccc(Cl)c2)c2ccccc21
11,50,Cc1cccc(NC(=O)N[C@@H]2C[C@H](c3ccccc3)c3ccccc3N(CC(=O)OC(C)(C)C)C2=O)c1
12,34,Cc1ccc2c(c1)N(CC(=O)OC(C)(C)C)C(=O)[C@H](NC(=O)Nc1cccc(Cl)c1)C[C@@H]2c1ccccc1
13,4.2,CN(C(=O)CN1C(=O)[C@H](NC(=O)Nc2cccc(Cl)c2)C[C@H](c2ccccc2)c2ccccc21)C(C)(C)C
